Experimental data from patent US6358995B1, “Carboxylic acid derivatives having fused rings” (Eisai Co., Ltd., priority 1996, dated 2002).

These compounds were tested against T1, RAR-α (Homo sapiens, UniProt P10276) (assay: Transcription accelerating activity through RARs (PLAP reporter in COS-1 cells)). Details: relative to ED30 of all-trans retinoic acid = 1, ED30 = concentration giving 30% of activity induced by 1 μM all-trans retinoic acid.
T1 construct: expressed in transfected cells; host or cells: COS-1 (African green monkey kidney cells), transient lipofection
T1 sequence (P10276 1-462): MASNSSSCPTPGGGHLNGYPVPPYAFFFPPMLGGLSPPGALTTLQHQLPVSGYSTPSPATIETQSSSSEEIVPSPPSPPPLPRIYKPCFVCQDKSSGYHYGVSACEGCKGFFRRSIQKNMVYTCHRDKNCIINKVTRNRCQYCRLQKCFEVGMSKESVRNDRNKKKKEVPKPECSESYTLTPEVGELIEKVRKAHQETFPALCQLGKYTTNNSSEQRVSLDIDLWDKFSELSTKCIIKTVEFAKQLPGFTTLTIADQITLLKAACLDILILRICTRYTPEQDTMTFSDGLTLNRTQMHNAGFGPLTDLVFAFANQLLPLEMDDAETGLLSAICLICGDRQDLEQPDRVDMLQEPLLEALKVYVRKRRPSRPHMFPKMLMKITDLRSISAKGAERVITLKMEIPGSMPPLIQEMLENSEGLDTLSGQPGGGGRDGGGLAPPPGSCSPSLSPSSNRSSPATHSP
Type: cell-based
Excerpt: (§1) Measurement of the Activities of Accelerating Trans-cription Through RARs
(§2) Human RAR Expression Vectors and secretory alkaline phosphatase (PLAP) gene vectors (PLAP vectors) containing in a state integrated into the upstream a competent sequence whose expression is […] through binding with RAR depending on a ligand were temporarily transferred into COS-1 (African green monkey kidney cells), and the PLAP which had been produced depending on a ligand and secreted into a culture medium was analyzed by the chemiluminescence method to determine the transcription-accelerating activity of each compound. Further, the selectivity of each compound among RARs was determined by comparing the transcription accelerating activities of the compound for the receptors with each other.
(§3) On a 60-mm culture dish were scattered 2.5×10^4 COS-1 cells. Four days after, human RAR α, β and γ expression vectors and PLAP vectors were transferred into the cells each in an amount of 4 μg by the lipofection method. Another day after, the resulting cells were recovered, and put on a 96-well culture plate in an amount of 2×10^4 per unit well. Four hours after, the cells were put on a medium containing charcoal-treated fetal bovine serum, followed by the addition of a dilution of all-trans retinoic acid or a test compound. After the lapse of 36 hours, the supernatant was recovered and the resulting samples were treated at 65° C. for 10 minutes to eliminate the non-specific activity. 15 μl of each sample was mixed with 60 μl of a 28 mM sodium carbonate buffer(pH10), followed by the addition of 75 μl of Smilight (trade name, a product of Sumitomo Metal Industries, Ltd., substrate for chemiluminescence). The resulting mixture was reacted at 37° C. for 30 minutes and the intensity of luminescence was determined. The compounds which will be described below induced the transcription activities of RARs dependently on the concentration.

Row | Compound | Transcription accelerating activity Relative ED30 RAR-α
1 | Cc1ccc(C)c2c1C=C(c1ccc(-c3ccc(C(=O)O)cc3)[nH]1)CO2 [Example 127, 4-{2-[5-(5,8-Dimethyl-2H-chromen-3-yl)pyrrolyl]}benzoic acid] | 1.8
2 | Cc1cccc2c1C=C(c1ccc(-c3ccc(C(=O)O)cc3)[nH]1)CO2 [Example 129, 4-{2-[5-(5-Methyl-2H-chromen-3-yl)pyrrolyl]}benzoic acid] | 4.4
3 | CC1=CCOc2ccc(-c3ccc(-c4ccc(C(=O)O)cc4)[nH]3)cc21 [Example 133, 4-{2-[5-(4-Methyl-2H-chromen-6-yl)pyrrolyl]}benzoic acid] | 3.2

Each compound was assayed against T2, RAR-β (Homo sapiens, UniProt P10826) in the same assay as above. Details: relative to ED30 of all-trans retinoic acid = 1, ED30 = concentration giving 30% of activity induced by 1 μM all-trans retinoic acid.
T2 construct: expressed in transfected cells; host or cells: COS-1 (African green monkey kidney cells), transient lipofection
T2 sequence (P10826 1-455): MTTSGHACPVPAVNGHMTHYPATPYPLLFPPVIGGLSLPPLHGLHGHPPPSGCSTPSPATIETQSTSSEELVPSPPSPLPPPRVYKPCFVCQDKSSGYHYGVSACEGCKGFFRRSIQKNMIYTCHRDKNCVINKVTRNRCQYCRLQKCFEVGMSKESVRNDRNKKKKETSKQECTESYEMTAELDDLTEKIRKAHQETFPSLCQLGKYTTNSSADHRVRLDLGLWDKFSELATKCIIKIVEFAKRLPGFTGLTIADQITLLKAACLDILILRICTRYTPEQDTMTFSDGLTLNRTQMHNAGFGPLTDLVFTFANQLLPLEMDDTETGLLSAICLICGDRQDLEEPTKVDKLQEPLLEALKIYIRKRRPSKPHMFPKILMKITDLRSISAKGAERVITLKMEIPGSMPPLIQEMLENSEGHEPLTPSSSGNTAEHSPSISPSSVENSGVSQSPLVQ
Type: cell-based
Excerpt: as §1, §2, §3

Row | Compound | Transcription accelerating activity Relative ED30 RAR-β
4 | Cc1ccc(C)c2c1C=C(c1ccc(-c3ccc(C(=O)O)cc3)[nH]1)CO2 [Example 127, 4-{2-[5-(5,8-Dimethyl-2H-chromen-3-yl)pyrrolyl]}benzoic acid] | 240
5 | Cc1cccc2c1C=C(c1ccc(-c3ccc(C(=O)O)cc3)[nH]1)CO2 [Example 129, 4-{2-[5-(5-Methyl-2H-chromen-3-yl)pyrrolyl]}benzoic acid] | 1050
6 | CC1=CCOc2ccc(-c3ccc(-c4ccc(C(=O)O)cc4)[nH]3)cc21 [Example 133, 4-{2-[5-(4-Methyl-2H-chromen-6-yl)pyrrolyl]}benzoic acid] | 250

Each compound was assayed against T3, RAR-γ (Homo sapiens, UniProt P13631) in the same assay as above. Details: relative to ED30 of all-trans retinoic acid = 1, ED30 = concentration giving 30% of activity induced by 1 μM all-trans retinoic acid.
T3 construct: expressed in transfected cells; host or cells: COS-1 (African green monkey kidney cells), transient lipofection
T3 sequence (P13631 1-454): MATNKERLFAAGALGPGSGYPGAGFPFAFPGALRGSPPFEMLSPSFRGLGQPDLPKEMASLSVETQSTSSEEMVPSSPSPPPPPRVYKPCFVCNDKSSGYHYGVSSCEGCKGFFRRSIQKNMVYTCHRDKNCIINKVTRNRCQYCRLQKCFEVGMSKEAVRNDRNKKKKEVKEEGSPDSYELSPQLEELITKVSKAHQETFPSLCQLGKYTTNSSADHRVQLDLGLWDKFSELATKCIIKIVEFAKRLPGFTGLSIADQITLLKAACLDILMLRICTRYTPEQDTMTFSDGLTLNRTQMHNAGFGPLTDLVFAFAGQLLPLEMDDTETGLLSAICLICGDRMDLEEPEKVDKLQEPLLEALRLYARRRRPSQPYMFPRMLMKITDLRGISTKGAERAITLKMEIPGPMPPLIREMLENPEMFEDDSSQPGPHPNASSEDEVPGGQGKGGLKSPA
Type: cell-based
Excerpt: as §1, §2, §3

Row | Compound | Transcription accelerating activity Relative ED30 RAR-γ
7 | Cc1ccc(C)c2c1C=C(c1ccc(-c3ccc(C(=O)O)cc3)[nH]1)CO2 [Example 127, 4-{2-[5-(5,8-Dimethyl-2H-chromen-3-yl)pyrrolyl]}benzoic acid] | 3600
8 | Cc1cccc2c1C=C(c1ccc(-c3ccc(C(=O)O)cc3)[nH]1)CO2 [Example 129, 4-{2-[5-(5-Methyl-2H-chromen-3-yl)pyrrolyl]}benzoic acid] | 2400
9 | CC1=CCOc2ccc(-c3ccc(-c4ccc(C(=O)O)cc4)[nH]3)cc21 [Example 133, 4-{2-[5-(4-Methyl-2H-chromen-6-yl)pyrrolyl]}benzoic acid] | 780
